Laboratory results reported in PubChem BioAssay AID179 (DTP/NCI, 2004).
Calls of active or inactive are those of the source.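 How the source made its calls: active means compounds giving half or more protection of infected cells from virus-caused growth loss, again on retest; inactive means the rest.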 Where a SMILES comes first, the peptide text is derived from it. Bridges are numbered along the chain shown (N, C = ends). [ ]: non-standard residue; d: D form. The star is where a group is joined. ξ: configuration not given here. Cbz = O=C(OCc1ccccc1)*; Aib = CC(C)(N)C(=O)O; Bz = O=C(c1ccccc1)*; OBn = c1ccc(CO*)cc1; Bn = c1ccc(C*)cc1; ξC = NC(CS)C(=O)O; βAla = NCCC(=O)O

Tested on: CEM cells HIV-1 protection, formazan growth assay
Test: NCI AIDS Antiviral Assay
Conditions: for IC50: measured here: growth of uninfected CEM cells
How it was run: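 Protection of CEM cells against HIV-1 was scored from cell growth (soluble formazan) across five concentrations, with parallel uninfected cells. Lack of protection may reflect toxicity.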

SMILES	outcome	EC50 [µM]	IC50 [µM]
Nc1ccc(C(=O)N/C(=C\C=C\c2ccco2)c2nc3c4c(ccc3[nH]2)C(=O)c2ccccc2C4=O)cc1	inactive		
Nc1nc(N)nc(-c2cnc3ccccc3c2)n1		> 200	> 200
c1cc[c]([Sn]([S]c2cccc3cccnc23)([S]c2cccc3cccnc23)[c]2ccccc2)cc1	inactive		
Clc1c2ccccc2[se][n+]1Cc1ccccc1		> 15.1	12.3
CCOC(=O)C1=C(C)N(NC(=O)c2ccccc2)C2(O)CCCC12C(=O)OCC (centres undefined)		> 447	245
Cc1cc(OCC(O)CO)ccc1Cl (centres undefined)		> 1150	550
NC(=O)c1csc(C2(O)COC(CO)C2O)n1 (centres undefined)		> 200	> 200
CC1(C)NC(=O)C(NC(=O)C(CC(=O)OCc2ccccc2)NC(=O)OCc2ccccc2)CCCCNC(=O)CCNC1=O (centres undefined) (Cbz-D(OBn)K[Aib][βAla]; lactam 2-C; configuration not given here)		> 200	> 200
CCCCCCCCN(/N=C/c1c2c(O)c3c(O)c(C)c4c(c3c1O)C(=O)C(C)(O/C=C/C(OC)C(C)C(OC(C)=O)C(C)C(O)C(C)C(O)C(C)/C=C/C=C(C)C(=O)N2)O4)C1OC(COC(=O)c2ccccc2)C(OC(=O)c2ccccc2)C1OC(=O)c1ccccc1 (centres undefined)		> 200	10.5
Nc1ncnc2c(C3OC(CO)C(O)C3O)nsc12 (centres undefined)		> 200	
O=C(Nc1ccc(/C=C/c2ccc(NC(=O)c3ccccc3O)cc2S(=O)(=O)O)c(S(=O)(=O)O)c1)c1ccccc1O		115	> 200
Brc1ccc(N2N=NC3C4CC(C5CCCC54)C32)cc1 (centres undefined)		> 5.62	> 5.62
CCOC(=O)C1CC(C(=O)OCC)c2nc3ccccc3nc21 (centres undefined)		> 8.71	> 8.71
COC(=O)N/N=C(/CCC(=O)Nc1ccc(C)c(C)c1)CC(=O)C(C)(C)C		> 661	> 661
S=C(Nc1ccccn1)Nc1ccccc1Cl		> 200	123
COc1ccc(/C=C(\C#N)c2nc(-c3cc4ccccc4oc3=O)cs2)cc1		162	> 200
Cc1cc(=O)oc2cc(O/C(=C\c3ccccc3)c3nc4ccccc4c(=O)o3)ccc12	inactive		
CCOC(=O)c1cc(-c2ccc(OC)cc2)c([N+](=O)[O-])[nH]1		> 200	25.7
O=C1OC(=C(Cl)Cl)C2C3c4ccccc4C(c4ccccc43)C12 (centres undefined)		> 100	47.9
Cn1c(=O)c2nc(-c3ccccc3)nnc2n(CCO)c1=O		> 200	41.7
O=c1c2c([nH]c3c1ccc1[nH]c4c(c(=O)c13)CCCC4)CCCC2		> 42.7	> 42.7
O=C(N/N=C\c1ccc([N+](=O)[O-])cc1)c1ccccc1Nc1ccccc1C(=O)N/N=C/c1ccc([N+](=O)[O-])cc1		91.2	> 200

SMILES	outcome	EC50 [µM]	IC50 [µM]
CCc1ccccc1NC(=O)Nc1cc(C)ccn1		> 200	24
CC(=O)Nc1ccc(C(=O)NN2C(=O)CSC2c2ccc(O)cc2)cc1 (centres undefined)		> 36.3	> 36.3
Cc1cc(N(CCC#N)CCC#N)ccc1/C(N=Nc1cccc([N+](=O)[O-])c1)=N/NC(=O)c1cc(Cl)ccc1O		> 200	12
CC(=O)O[C@]1(C(C)=O)CC[C@H]2[C@@H]3C[C@H](C)C4=CCCC[C@]4(C)[C@H]3CC[C@@]21C		> 100	> 100
n1onc2c1NC1Nc3nonc3NC1N2 (centres undefined)		> 200	> 200
Cc1cc(Cl)nc2nc(Cl)c(N)cc12	inactive		
C=CCC(C(=O)OC)C1(C(=O)OC)NCCc2c1[nH]c1ccccc21 (centres undefined)		> 324	178
COc1ccc2nc(-c3ccccc3)cc(N=[N+]=[N-])c2c1	inactive		
N#Cc1ccc(/C=C(/C(=O)c2ccccc2)c2ccccc2)cc1		> 17	9.55
N#CCCC(CCC#N)(CCC#N)[N+](=O)[O-]		> 200	> 200
O=[N+]([O-])c1nccn1CCCNc1c2ccccc2nc2ccccc12	inactive		
O=[N+]([O-])c1cccc2nsnc12		> 145	23.4
Cc1ccc(S(=O)(=O)c2ccc(NC(=O)SCCC(=O)O)cc2)cc1	inactive		
CN(C)N=Nc1cn[nH]c1C(N)=O		> 138	6.76
COc1ccc(/C=C(\NC(=O)c2ccccc2)C(=O)NN(C)c2ccnc3cc(Cl)ccc23)cc1OC		> 200	56.2
CC(=O)NS(=O)(=O)c1ccc(NC(=O)c2ccccc2SC(=O)CCCC[n+]2ccccc2)cc1		1.78	> 200
O=C(O)/C(=C/c1c(O)ccc2ccccc12)c1csc(-c2nc(/C(=C\c3c(O)ccc4ccccc34)C(=O)O)cs2)n1		> 43.7	23.4
CN(C)CC1COC2Cc3ccccc3C1O2 (centres undefined)		> 200	> 200
O=C1CC(=O)N(C=C2C(=O)NC(=O)NC2=O)C(=S)N1		> 200	> 200
C=CO/N=[N+](\[O-])N(CC)CC		> 200	> 200
N#Cc1cc(NC(=O)c2ccccc2)c(=O)n2c1[nH]c1ccccc12	inactive		
COc1cc(CC(=O)O)c([N+](=O)[O-])cc1OC		> 1020	891

SMILES	outcome	EC50 [µM]	IC50 [µM]
Cc1c2c(cc3c1C(=O)C(=O)C1=C3OCC1C)C(C)(C)CCC2 (centres undefined)	inactive		
N#Cc1c(N)sc(N)c1C#N		> 200	97.7
S=c1cn[nH]c2ccccc12		> 661	170
COc1c2cc([N+](=O)[O-])cc1CNC(=O)CN1CCOCCOCCN(CCOCCOCC1)CC(=O)NC2		> 100	> 100
Cc1cc(N(CCC#N)CCC#N)ccc1/C(N=Nc1ccc(C(=O)O)cc1)=N\NC(=O)c1ccccc1		> 200	13.5
Cc1cn(COCCCS(=O)c2ccccc2)c(=O)[nH]c1=O (centres undefined)		> 200	> 200
N=C(N)N=Nc1cc(O)c(NN=C(N)N)cc1O		> 200	110
Cc1cc([N+](=O)[O-])c(S(=O)(=O)c2ccccc2)c([N+](=O)[O-])c1		> 22.4	3.63
Nc1ccccc1-c1ccn[nH]1		> 200	> 200
CN1C(=O)[C@](O)(Cc2cccc(O)c2)N(C)C(=O)[C@@H]1Cc1c[nH]c2cccc([N+](=O)[O-])c12	inactive		
CCC(C)c1c(N)o[nH]c1=O (centres undefined)		> 200	> 200
O=C(CNC(=O)c1ccccc1)NC(CSCc1ccccc1)C(=O)O (centres undefined) (Bz-Gly-[ξC](Bn)-OH)		> 676	550
O=C(NCCCn1ccnc1[N+](=O)[O-])C(=O)NCCCn1ccnc1[N+](=O)[O-]		> 200	> 200
NC(=O)N/N=C(/CC1C(=O)Oc2ccccc21)c1ccccc1O (centres undefined)		> 550	295
CCc1n[nH]c(=O)n1-c1ccc2ccccc2c1		> 100	> 100
O=[N+]([O-])c1cc2c(c3nonc13)OCCCCO2		> 200	1.15
Cc1c2ccncc2c(C)c2c1[nH]c1ccc(F)cc12		> 200	0.437
C=C1C(=O)O[C@H]2[C@H]1CC(=O)/C(C)=C/CC[C@@]1(C)O[C@@H]21		> 2	0.794
CCP(=O)(CC)C(Cl)Cl		> 200	> 200
CC[N+]1(C2=C([O-])C(F)(F)C2=O)CCCCC1		> 200	> 200
NC1=Nc2ccccc2Sc2nccn21		> 200	28.8
C=C(CCC(Cl)C(COS(=O)(=O)c1ccc(C)cc1)OC(CCCO[Si](c1ccccc1)(c1ccccc1)C(C)(C)C)OCC)[Si](C)(C)C (centres undefined)		> 5.01	> 5.01

SMILES	outcome	EC50 [µM]	IC50 [µM]
COC(=O)NC(C(F)(F)F)(C(F)(F)F)P1(=O)OCCCO1		> 200	63.1
COC(=O)/C=C/c1ccc(OP(=O)(O)O)c(OC)c1		> 200	> 200
O=C1c2cc([N+](=O)[O-])cnc2S(=O)(=O)N1c1ccc(Br)cc1		> 200	95.5
CCOC(=O)c1ccc(N=Cc2ccc(N(CCC#N)S(=O)(=O)c3ccccc3)cc2C)cc1		> 75.9	> 75.9
Nc1nc2cc(CNc3ccc(C(=O)NC(CCC(=O)O)C(=O)O)cc3)ccc2nc1-c1ccccc1 (centres undefined)		> 200	12.3
C[C@H]1C[C@H]2[C@@H]3CCC4=CC(=O)C=C[C@]4(C)C3=CC[C@]2(C)[C@@]1(O)C(=O)CO		102	107
CC(=O)OC1/C=C(\C)C(OC(C)=O)C/C=C(/C)CCC2C(/C=C/C1=O)C2(C)C (centres undefined)		> 66.1	> 66.1
O=C1CSC(c2ccc([N+](=O)[O-])cc2)N1c1ccc(-c2ccc(-n3c(-c4ccccc4)nc4ccccc4c3=O)cc2)cc1 (centres undefined)		> 200	39.8
CCOC(OCC)/C(C)=N/[N+](C)(C)C		> 200	> 200
Cc1ccccc1C(=O)c1ccccc1C(=O)O		200	617
OCCN(CCO)c1cccc(N(CCO)CCO)n1	inactive		
O=C1c2cc(Oc3ccccc3)c(S(=O)(=O)O)c(S(=O)(=O)O)c2C(=O)c2c(O)ccc(O)c21		> 200	72.4
COc1ccc(-c2c(C#N)c(=O)nc(SC)n2C2OCC(OC(C)=O)C(OC(C)=O)C2OC(C)=O)cc1 (centres undefined)		> 200	35.5
CCOP12(OCC)NC(=O)OC1(C(F)(F)F)c1ccccc1O2 (centres undefined)		> 141	> 141
COc1ccc(-c2oc3cc(O)cc(O)c3c(=O)c2OC)cc1	inactive		
O=C([O][Bi]([c]1ccccc1)[c]1ccccc1)C(F)(F)F		> 20	15.1
CCOC(=O)c1c(C)c(=O)cnc2c(C#N)cnn12		> 115	> 115
NNc1nc(Nc2ccccc2)nc(Nc2ccccc2)n1		> 200	38
CC(C)N(C(=O)C12C3C4C1(I)C1C2C3(I)C41C(=O)N(C(C)C)C(C)C)C(C)C (centres undefined)		> 8.51	> 8.51
CC(C)c1ccc(/C(C(=O)O)=C(\O)C(=O)O)cc1		> 200	107
